Source: ChEMBL document CHEMBL1201862, “PubChem BioAssay data set” (2004)
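96-well plates; 48 h exposure; 5 concentrations. Endpoints by linear interpolation between flanking doses. Not reached: highest tested concentration assigned. Here, GI50 denotes the concentration required for 50% inhibition of growth.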 Calls of active or inactive are those of the source. Rule as the data show it: active = GI50 up to about 1.1 µM and inactive = higher.

Columns and labels:
Experiment in all cases: NCI anticancer screen, dose series, 48 h
HOP-92 = tested on: HOP-92
Hs-578T = tested on: Hs-578T
UO-31 = tested on: UO-31
SN12C = tested on: SN12C
786-0 = tested on: 786-0
SNB-75 = tested on: SNB-75
Malme-3M = tested on: Malme-3M
CAKI-1 = tested on: CAKI-1
SK-MEL-5 = tested on: SK-MEL-5
EKVX = tested on: EKVX
TK-10 = tested on: TK-10
SF-539 = tested on: SF-539
HT-29 = tested on: HT-29
SF-295 = tested on: SF-295
K562 = tested on: K562
OVCAR-8 = tested on: OVCAR-8
LOX IMVI = tested on: LOX IMVI
OVCAR-4 = tested on: OVCAR-4
SK-MEL-2 = tested on: SK-MEL-2
NCI-H522 = tested on: NCI-H522

Compound | GI50 (HOP-92) | GI50 (Hs-578T) | GI50 (UO-31) | GI50 (SN12C) | GI50 (786-0) | GI50 (SNB-75) | GI50 (Malme-3M) | GI50 (CAKI-1) | GI50 (SK-MEL-5) | GI50 (EKVX) | GI50 (TK-10) | GI50 (SF-539) | GI50 (HT-29) | GI50 (SF-295) | GI50 (K562) | GI50 (OVCAR-8) | GI50 (LOX IMVI) | GI50 (OVCAR-4) | GI50 (SK-MEL-2) | GI50 (NCI-H522)
Cc1ccc(Nc2n[nH]c(=S)s2)cc1 | > 100 µM (inactive) | > 100 µM (inactive) | 87.9 µM (inactive) | > 100 µM (inactive) | > 100 µM (inactive) | > 100 µM (inactive) | > 100 µM (inactive) | > 100 µM (inactive) | 99.1 µM (inactive) | > 100 µM (inactive) | > 100 µM (inactive) | > 100 µM (inactive) | > 100 µM (inactive) | > 100 µM (inactive) | > 100 µM (inactive) | > 100 µM (inactive) | > 100 µM (inactive) | – | – | –
CC(C)CCCC(C)[C@H]1CCC2[C@@H]3CCC4Cc5nc6c(nc5C[C@]4(C)C3CC[C@@]21C)CC1CC[C@@H]2C(CC[C@@]3(C)C2CC[C@@H]3C(C)CCCC(C)C)[C@@]1(C)C6 (some centres not stated) | > 100 µM (inactive) | > 100 µM (inactive) | > 100 µM (inactive) | > 100 µM (inactive) | > 100 µM (inactive) | 38.8 µM (inactive) | > 100 µM (inactive) | – | > 100 µM (inactive) | > 100 µM (inactive) | > 100 µM (inactive) | > 100 µM (inactive) | > 100 µM (inactive) | > 100 µM (inactive) | > 100 µM (inactive) | > 100 µM (inactive) | > 100 µM (inactive) | > 100 µM (inactive) | > 100 µM (inactive) | –
COC(=O)[C@@]1(C(C)CC(=O)O)CCCCC1=O (some centres not stated) | > 100 µM (inactive) | – | > 100 µM (inactive) | > 100 µM (inactive) | 27 µM (inactive) | > 100 µM (inactive) | > 100 µM (inactive) | > 100 µM (inactive) | > 100 µM (inactive) | > 100 µM (inactive) | > 100 µM (inactive) | > 100 µM (inactive) | > 100 µM (inactive) | > 100 µM (inactive) | > 100 µM (inactive) | > 100 µM (inactive) | 93.8 µM (inactive) | > 100 µM (inactive) | > 100 µM (inactive) | > 100 µM (inactive)
O=C1CCC2(c3ccc(F)cc3)Nc3ncccc3N12 (configuration not stated) | > 100 µM (inactive) | – | > 100 µM (inactive) | > 100 µM (inactive) | > 100 µM (inactive) | 70.1 µM (inactive) | > 100 µM (inactive) | > 100 µM (inactive) | > 100 µM (inactive) | > 100 µM (inactive) | > 100 µM (inactive) | > 100 µM (inactive) | > 100 µM (inactive) | > 100 µM (inactive) | > 100 µM (inactive) | > 100 µM (inactive) | > 100 µM (inactive) | > 100 µM (inactive) | > 100 µM (inactive) | > 100 µM (inactive)
CC[C@@H](C)[C@@H]1NC(=O)C(C(C)=O)=C1O | 43.4 µM (inactive) | – | 30.4 µM (inactive) | 25.1 µM (inactive) | 22.4 µM (inactive) | 25.4 µM (inactive) | 25.1 µM (inactive) | 0.456 µM (active) | 15.6 µM (inactive) | 27.7 µM (inactive) | 40.6 µM (inactive) | 23.1 µM (inactive) | 32.1 µM (inactive) | 26.9 µM (inactive) | 24 µM (inactive) | 24.9 µM (inactive) | 26.1 µM (inactive) | 27.1 µM (inactive) | 15.3 µM (inactive) | 20.1 µM (inactive)
Nc1nc2[nH]cnc2c(=O)[nH]1 | > 100 µM (inactive) | – | > 100 µM (inactive) | > 100 µM (inactive) | > 100 µM (inactive) | 90.6 µM (inactive) | > 100 µM (inactive) | > 100 µM (inactive) | > 100 µM (inactive) | > 100 µM (inactive) | > 100 µM (inactive) | > 100 µM (inactive) | > 100 µM (inactive) | > 100 µM (inactive) | > 100 µM (inactive) | > 100 µM (inactive) | > 100 µM (inactive) | > 100 µM (inactive) | > 100 µM (inactive) | > 100 µM (inactive)
COC(=O)CCC(=O)Nc1cccc(C(F)(F)F)c1 | > 100 µM (inactive) | – | > 100 µM (inactive) | > 100 µM (inactive) | > 100 µM (inactive) | > 74.1 µM (inactive) | > 100 µM (inactive) | > 100 µM (inactive) | > 100 µM (inactive) | > 100 µM (inactive) | > 100 µM (inactive) | > 100 µM (inactive) | > 100 µM (inactive) | > 100 µM (inactive) | > 100 µM (inactive) | > 100 µM (inactive) | > 100 µM (inactive) | > 100 µM (inactive) | > 100 µM (inactive) | > 100 µM (inactive)
Oc1ccc(-c2nc(-c3ccc4ccccc4n3)c(-c3ccc(F)cc3)[nH]2)cc1 | – | 11 µM (inactive) | 11.6 µM (inactive) | 15.3 µM (inactive) | 15.2 µM (inactive) | 21.6 µM (inactive) | 13.7 µM (inactive) | 13.6 µM (inactive) | 2.12 µM (inactive) | 17.8 µM (inactive) | 13.2 µM (inactive) | – | 7.55 µM (inactive) | 10.4 µM (inactive) | 14.5 µM (inactive) | 12.5 µM (inactive) | 10.6 µM (inactive) | 11.2 µM (inactive) | 14.5 µM (inactive) | –
CCOC(=O)c1c(CN2CCOCC2)n(Cc2ccccc2)c2c1cc(O)c1nc(C)c(C)nc12 | – | 36.1 µM (inactive) | 36.1 µM (inactive) | > 100 µM (inactive) | 27.7 µM (inactive) | 9.98 µM (inactive) | 45.8 µM (inactive) | 22.1 µM (inactive) | 22.6 µM (inactive) | > 100 µM (inactive) | 30.3 µM (inactive) | 30.8 µM (inactive) | > 100 µM (inactive) | 56.5 µM (inactive) | 84.9 µM (inactive) | 15.5 µM (inactive) | 46.6 µM (inactive) | 47.8 µM (inactive) | 20 µM (inactive) | –
C[C@@]1(CO)[C@H](O)CC[C@@]2(C)[C@H]1CC[C@H]1C[C@@H]3C[C@@]12CC[C@@]3(O)COC(=O)CN | 20.4 µM (inactive) | 53.1 µM (inactive) | 4.7 µM (inactive) | – | 0.923 µM (active) | – | – | 0.762 µM (active) | 11.2 µM (inactive) | 16.4 µM (inactive) | 56.5 µM (inactive) | – | 9.25 µM (inactive) | – | 5.55 µM (inactive) | – | 5.57 µM (inactive) | 49.8 µM (inactive) | 64.9 µM (inactive) | –
CCCCCC/C=C1\CCC(CN2CCOCC2)C1=O (configuration not stated) | 16.3 µM (inactive) | – | 14.3 µM (inactive) | 17.2 µM (inactive) | 4.23 µM (inactive) | 21 µM (inactive) | 16.3 µM (inactive) | 16.8 µM (inactive) | 18.1 µM (inactive) | 14.1 µM (inactive) | 13.4 µM (inactive) | 16.9 µM (inactive) | 17.7 µM (inactive) | 17.7 µM (inactive) | 3.07 µM (inactive) | 16.8 µM (inactive) | 10.2 µM (inactive) | 20.4 µM (inactive) | 18.7 µM (inactive) | 7.87 µM (inactive)
